How the values were obtained:
liver = conditions: in vivo; cited from earlier work
[1] = test system: mRNA expressed from the genes (A) to (D) in rat liver; experiment: Behavior of genes (mRNA expression level, oligo-DNA microarray) in rat liver after 28-day oral administration; format: in vivo
In short: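 Oral gavage, once daily × 28 days; male F344 SPF rats, 5 wk, n=4/group; vehicle controls given equal solvent volume. Liver excised day 28, total RNA purified. Significance: ≥1.5× or ≤1/1.5 of vehicle, direction concordant with other carcinogens.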

rodent = conditions: in vivo; cited from earlier work
[2] = gene group (A), Unigene No. Rn.167075, mRNA vs vehicle control group
[3] = gene group (C), Unigene No. Rn.120914, mRNA vs vehicle control group

## CC(=O)Nc1ccc(C(=O)CCl)cc1 [TS072, 4-(Chloroacetyl)acetanilide]
liver
  Liver carcinogenicity: Cr−
[1]; rat, in vivo
  Behavior of gene caused by administration of chemical substance, Gene No. 154: −
  Behavior of gene caused by administration of chemical substance, Gene No. 533: +
  Behavior of gene caused by administration of chemical substance, Gene No. 725: +
  Behavior of gene caused by administration of chemical substance, Gene No. 813: −
  Behavior of gene caused by administration of chemical substance, Gene No. 893: −
  Behavior of gene caused by administration of chemical substance, Gene No. 1119: −
  Behavior of gene caused by administration of chemical substance, Gene No. 1131: −
  Behavior of gene caused by administration of chemical substance, Gene No. 1163: +
  Behavior of gene caused by administration of chemical substance, Gene No. 1334: −
  Behavior of gene caused by administration of chemical substance, Gene No. 1494: +
  Behavior of gene caused by administration of chemical substance, Gene No. 1562: −
  Behavior of gene caused by administration of chemical substance, Gene No. 1741: −
  Behavior of gene caused by administration of chemical substance, Gene No. 1993: −
  Behavior of gene caused by administration of chemical substance, Gene No. 2026: +
  Behavior of gene caused by administration of chemical substance, Gene No. 2045: +
  Behavior of gene caused by administration of chemical substance, Gene No. 2203: +
  Behavior of gene caused by administration of chemical substance, Gene No. 2494: −
  Behavior of gene caused by administration of chemical substance, Gene No. 2546: −
  Behavior of gene caused by administration of chemical substance, Gene No. 3776: +
  Behavior of gene caused by administration of chemical substance, Gene No. 3929: −
  Behavior of gene caused by administration of chemical substance, Gene No. 4095: −
  Behavior of gene caused by administration of chemical substance, Gene No. 4218: +
  Behavior of gene caused by administration of chemical substance, Gene No. 4846: +
  Behavior of gene caused by administration of chemical substance, Gene No. 4973: +
  Behavior of gene caused by administration of chemical substance, Gene No. 5600: +
  Behavior of gene caused by administration of chemical substance, Gene No. 5634: −
  Behavior of gene caused by administration of chemical substance, Gene No. 5726: −
  Behavior of gene caused by administration of chemical substance, Gene No. 5878: −
  Behavior of gene caused by administration of chemical substance, Gene No. 6026: −
  Behavior of gene caused by administration of chemical substance, Gene No. 6182: +
  Behavior of gene caused by administration of chemical substance, Gene No. 6303: −
  Behavior of gene caused by administration of chemical substance, Gene No. 6620: −
  Behavior of gene caused by administration of chemical substance, Gene No. 6742: −
rodent
  Carcinogenicity: C−

## Nc1ccc(N=Nc2ccccc2)cc1 [TS075, 4-Aminoazobenzene]
liver
  Liver carcinogenicity: Cr+
[1]; Gene No. 154, Rn.185941, group (C)
  Behavior of gene caused by administration of chemical substance: −
[1]; Gene No. 533, Rn.106184, group (C)
  Behavior of gene caused by administration of chemical substance: −
[1]; Gene No. 725, Rn.108075, group (C)
  Behavior of gene caused by administration of chemical substance: −
[1]; Gene No. 813, Rn.201760, group (C)
  Behavior of gene caused by administration of chemical substance: −
[1]; Gene No. 893, Rn.164817, group (C)
  Behavior of gene caused by administration of chemical substance: +
[1]; Gene No. 1119, Rn.9757, group (C)
  Behavior of gene caused by administration of chemical substance: −
[1]; Gene No. 1131, Rn.144946, group (C)
  Behavior of gene caused by administration of chemical substance: −
[1]; Gene No. 1163, Rn.11766, group (C)
  Behavior of gene caused by administration of chemical substance: +
[1]; Gene No. 1334, Rn.120914, group (C)
  Behavior of gene caused by administration of chemical substance: −
[1]; Gene No. 1494, Rn.1430, group (B)
  Behavior of gene caused by administration of chemical substance: −
[1]; Gene No. 1562, Rn.14744, group (C)
  Behavior of gene caused by administration of chemical substance: −
[1]; Gene No. 1741, Rn.1647, group (C)
  Behavior of gene caused by administration of chemical substance: −
[1]; Gene No. 1993, Rn.18728, group (C)
  Behavior of gene caused by administration of chemical substance: +
[1]; Gene No. 2026, Rn.167075, group (A)
  Behavior of gene caused by administration of chemical substance: −
[1]; Gene No. 2045, Rn.19329, group (B)
  Behavior of gene caused by administration of chemical substance: −
[1]; Gene No. 2203, Rn.21240, group (B)
  Behavior of gene caused by administration of chemical substance: +
[1]; Gene No. 2494, Rn.23969, group (C)
  Behavior of gene caused by administration of chemical substance: −
[1]; Gene No. 2546, Rn.24561, group (C)
  Behavior of gene caused by administration of chemical substance: +
[1]; Gene No. 3776, Rn.43232, group (C)
  Behavior of gene caused by administration of chemical substance: −
[1]; Gene No. 3929, Rn.4620, group (C)
  Behavior of gene caused by administration of chemical substance: +
[1]; Gene No. 4095, Rn.119024, group (C)
  Behavior of gene caused by administration of chemical substance: +
[1]; Gene No. 4218, Rn.167075, group (A)
  Behavior of gene caused by administration of chemical substance: −
[1]; Gene No. 4846, Rn.144554, group (A)
  Behavior of gene caused by administration of chemical substance: −
[1]; Gene No. 4973, Rn.118529, group (C)
  Behavior of gene caused by administration of chemical substance: +
[1]; Gene No. 5600, Rn.9836, group (A)
  Behavior of gene caused by administration of chemical substance: −
[1]; Gene No. 5634, Rn.9862, group (C)
  Behavior of gene caused by administration of chemical substance: −
[1]; Gene No. 5726, Rn.9939, group (D)
  Behavior of gene caused by administration of chemical substance: −
[1]; Gene No. 5878, Rn.143213, group (C)
  Behavior of gene caused by administration of chemical substance: −
[1]; Gene No. 6026, Rn.167685, group (C)
  Behavior of gene caused by administration of chemical substance: −
[1]; Gene No. 6182, Rn.5834, group (A)
  Behavior of gene caused by administration of chemical substance: −
[1]; Gene No. 6303, Rn.123063, group (C)
  Behavior of gene caused by administration of chemical substance: −
[1]; Gene No. 6620, Rn.120914, group (C)
  Behavior of gene caused by administration of chemical substance: −
[1]; Gene No. 6742, Rn.9779, group (C)
  Behavior of gene caused by administration of chemical substance: −
rodent
  Carcinogenicity: C+

## Cc1cccc(N=Nc2ccc(N(C)C)cc2)c1 [TS076, 3′-Methyl-4-dimethylaminoazobenzene]
liver
  Liver carcinogenicity: Cr+
[1]; gene group (A), Unigene No. Rn.144554, mRNA vs vehicle control group
  Behavior of gene caused by administration of chemical substance, Gene No. 4846: +
[1]; [2]
  Behavior of gene caused by administration of chemical substance, Gene No. 2026: +
  Behavior of gene caused by administration of chemical substance, Gene No. 4218: +
[1]; gene group (A), Unigene No. Rn.5834, mRNA vs vehicle control group
  Behavior of gene caused by administration of chemical substance, Gene No. 6182: +
[1]; gene group (A), Unigene No. Rn.9836, mRNA vs vehicle control group
  Behavior of gene caused by administration of chemical substance, Gene No. 5600: +
[1]; gene group (B), Unigene No. Rn.1430, mRNA vs vehicle control group
  Behavior of gene caused by administration of chemical substance, Gene No. 1494: +
[1]; gene group (B), Unigene No. Rn.19329, mRNA vs vehicle control group
  Behavior of gene caused by administration of chemical substance, Gene No. 2045: +
[1]; gene group (B), Unigene No. Rn.21240, mRNA vs vehicle control group
  Behavior of gene caused by administration of chemical substance, Gene No. 2203: −
[1]; gene group (C), Unigene No. Rn.106184, mRNA vs vehicle control group
  Behavior of gene caused by administration of chemical substance, Gene No. 533: +
[1]; gene group (C), Unigene No. Rn.108075, mRNA vs vehicle control group
  Behavior of gene caused by administration of chemical substance, Gene No. 725: +
[1]; gene group (C), Unigene No. Rn.11766, mRNA vs vehicle control group
  Behavior of gene caused by administration of chemical substance, Gene No. 1163: −
[1]; gene group (C), Unigene No. Rn.118529, mRNA vs vehicle control group
  Behavior of gene caused by administration of chemical substance, Gene No. 4973: +
[1]; gene group (C), Unigene No. Rn.119024, mRNA vs vehicle control group
  Behavior of gene caused by administration of chemical substance, Gene No. 4095: +
[1]; [3]
  Behavior of gene caused by administration of chemical substance, Gene No. 1334: −
  Behavior of gene caused by administration of chemical substance, Gene No. 6620: −
[1]; gene group (C), Unigene No. Rn.123063, mRNA vs vehicle control group
  Behavior of gene caused by administration of chemical substance, Gene No. 6303: +
[1]; gene group (C), Unigene No. Rn.143213, mRNA vs vehicle control group
  Behavior of gene caused by administration of chemical substance, Gene No. 5878: −
[1]; gene group (C), Unigene No. Rn.144946, mRNA vs vehicle control group
  Behavior of gene caused by administration of chemical substance, Gene No. 1131: −
[1]; gene group (C), Unigene No. Rn.14744, mRNA vs vehicle control group
  Behavior of gene caused by administration of chemical substance, Gene No. 1562: +
[1]; gene group (C), Unigene No. Rn.1647, mRNA vs vehicle control group
  Behavior of gene caused by administration of chemical substance, Gene No. 1741: +
[1]; gene group (C), Unigene No. Rn.164817, mRNA vs vehicle control group
  Behavior of gene caused by administration of chemical substance, Gene No. 893: −
[1]; gene group (C), Unigene No. Rn.167685, mRNA vs vehicle control group
  Behavior of gene caused by administration of chemical substance, Gene No. 6026: −
[1]; gene group (C), Unigene No. Rn.185941, mRNA vs vehicle control group
  Behavior of gene caused by administration of chemical substance, Gene No. 154: +
[1]; gene group (C), Unigene No. Rn.18728, mRNA vs vehicle control group
  Behavior of gene caused by administration of chemical substance, Gene No. 1993: +
[1]; gene group (C), Unigene No. Rn.201760, mRNA vs vehicle control group
  Behavior of gene caused by administration of chemical substance, Gene No. 813: −
[1]; gene group (C), Unigene No. Rn.23969, mRNA vs vehicle control group
  Behavior of gene caused by administration of chemical substance, Gene No. 2494: −
[1]; gene group (C), Unigene No. Rn.24561, mRNA vs vehicle control group
  Behavior of gene caused by administration of chemical substance, Gene No. 2546: −
[1]; gene group (C), Unigene No. Rn.43232, mRNA vs vehicle control group
  Behavior of gene caused by administration of chemical substance, Gene No. 3776: −
[1]; gene group (C), Unigene No. Rn.4620, mRNA vs vehicle control group
  Behavior of gene caused by administration of chemical substance, Gene No. 3929: −
[1]; gene group (C), Unigene No. Rn.9757, mRNA vs vehicle control group
  Behavior of gene caused by administration of chemical substance, Gene No. 1119: −
[1]; gene group (C), Unigene No. Rn.9779, mRNA vs vehicle control group
  Behavior of gene caused by administration of chemical substance, Gene No. 6742: −
[1]; gene group (C), Unigene No. Rn.9862, mRNA vs vehicle control group
  Behavior of gene caused by administration of chemical substance, Gene No. 5634: −
[1]; gene group (D), Unigene No. Rn.9939, mRNA vs vehicle control group
  Behavior of gene caused by administration of chemical substance, Gene No. 5726: −
rodent
  Carcinogenicity: C+

— US20110039721A1, “METHOD FOR PREDICTION ABOUT CARCINOGENICITY OF SUBSTANCE IN RODENT” (Chemicals Evaluation and Research Institute, priority 2007, published 2011)
